Assay results taken from paper PMC7179112, “Antimicrobial, Antioxidant, and Anticancer Activities of Some Novel Isoxazole Ring Containing Chalcone and Dihydropyrazole Derivatives” (Molecules, 2020).
Converted amounts (≈) assume the structure as drawn.

Tests used:
Pseudomonas aeruginosa = experiment: Antibacterial activity, serial tube dilution method; format: cell-based; details: for MIC: Pseudomonas aeruginosa, Gram-negative, serial tube dilution, read-out: MIC P aeruginosa
Description: (§1) The target chalcones (17–31) and pyrazolines (32–46) were tested for their antimicrobial activities by serial tube dilution method against two types of bacterial and fungal strains (Table 1 and Table 2). The bacterial strains used for the testing, including Gram-positive Staphylococcus aureus and Gram-negative Pseudomonas aeruginosa, whereas the fungal strains employed were Aspergillus niger and Candida tropicalis.
(§2) The antibacterial and antifungal activity of the novel chalcones (17 to 31) and dihydropyrazoles (32 to 46) against the selected bacterial and fungal strains was assessed by following the procedure described in our previous paper.

Staphylococcus aureus = experiment: as above; format: cell-based; details: for MIC: Staphylococcus aureus, Gram-positive, serial tube dilution, read-out: MIC S aureus
Description: as §1, §2

Aspergillus niger = experiment: Antifungal activity, serial tube dilution method; format: cell-based
Description: as §1, §2

Candida tropicalis = experiment: Antifungal activity, serial tube dilution method; format: cell-based; details: read-out: MIC C tropicalis
Description: as §1, §2

[1] = DPPH free radical scavenging assay; details: antioxidant activity; average of three independent experiments
Description: The antioxidant activity of all 30 compounds was assessed using 1,1-diphenyl-2-picrylhydrazine (DPPH) free radical scavenging assay and the results are the average of three independent experiments (Table 3). Gallic acid was employed as a positive control. […] In the disubstituted series (20–25), compound 25 with substitutions at position 3 and 5 on the phenyl ring gave the highest activity of 9 µg/mL.
The purpose of this study was to evaluate the antioxidant activity of chalcones and pyrazolines using the DPPH free radical assay. The percentage of antioxidant activity (AA%) of all the compounds was assessed by the DPPH free radical assay. The measurement of the DPPH radical scavenging activity was performed according to methodology described by Brand-Williams et al. The samples were reacted with the stable DPPH radical in an ethanol solution. A 0.1 mM solution of DPPH was prepared by dissolving DPPH in methanol. Gallic acid was taken as a reference standard and different concentrations of test samples (5–100 µg/mL) and standard (1.0, 2.5, and 5.0 µg/mL) were prepared using methanol. One milliliter of 0.1 mM DPPH solution was added to 3 mL of all concentrations of test samples and standard separately. These mixtures were kept in dark for about 30 min and the absorbance was measured at 517 nm. The capability to scavenge the DPPH radical was calculated using the formula:(1) DPPH scavanged (%)= Absorbance of control−Absorbance of sample/Absorbance of control∗100 when DPPH reacted with an antioxidant compound and was reduced, the change in color (from deep violet to light yellow) was read [Absorbance (Abs)] at 517 nm after […] of reaction using a UV-VIS spectrophotometer.

[2] = test system: prostate cancer cell line, DU-145; experiment: MTT assay anticancer activity; format: cell-based; details: Homo sapiens, MTT assay, mean ± SD (n = 3)
Description: All the 30 compounds were evaluated for their anticancer potency against the prostate cancer cell line, DU-145, employing colorimetric tetrazolium dye (MTT) assay. […] Among the disubstituted series 20–25, substitution at position 3 and 4 (compound 24) produced the best activity but was lower than the standard. […] Similar phenomena can be seen among the dihydropyrazole series.
The in vitro anticancer activity of chalcones (17 to 31) and dihydropyrazoles (32 to 46) was evaluated by the Mosmann’s MTT assay as described previously.

Human Normal Cells (L02) = experiment: MTT assay toxicity on normal cells; format: cell-based
[3] = test system: bacterial and fungal strains (S. aureus, P. aeruginosa, A. niger, C. tropicalis); experiment: Antibacterial and antifungal activity (all strains); format: cell-based; details: range over bacterial and fungal strains
Description: as §1, §2

[4] = test system: Staphylococcus aureus and Pseudomonas aeruginosa; experiment: Antibacterial activity (strain not named); format: cell-based; details: text/figure value, strain not named
Description: as §1, §2

[5] = test system: Aspergillus niger and Candida tropicalis; experiment: Antifungal activity (strain not named); format: cell-based
Description: as §1, §2

[6] = text/figure value, strain not named

MIC (Pseudomonas aeruginosa) [µg/mL]	MIC (Staphylococcus aureus) [µg/mL]	MIC (Aspergillus niger) [µg/mL]	MIC (Candida tropicalis) [µg/mL]	DPPH assay IC50 [1] [µg/mL]	IC50 [2] [µg/mL]	MIC [3] [µg/mL]	MIC [4] [µg/mL]	MIC [5, 6] [µg/mL]	IC50 [5] [µg/mL]	antifungal MIC [5, 6] [µg/mL]	SMILES	IC50 (Human Normal Cells (L02)) [µg/mL]	fold improvement in the antibacterial activity compared to compound 38 (Pseudomonas aeruginosa; second of two values, P aeruginosa inferred from Table 2) [fold]	fold improvement in the antibacterial activity compared to compound 38 (Staphylococcus aureus; first of two values, S aureus inferred from Table 2) [fold]
128 (≈ 558 µM)	128 (≈ 558 µM)	256 (≈ 1120 µM)	256 (≈ 1120 µM)	38 ± 2	20 ± 1 (≈ 87.2 µM)	64 to 256 (≈ 279 to 1120 µM)					COc1cccc(/C=C/C(=O)c2ccno2)c1 [Compound 18]	> 40		
256 (≈ 987 µM)	256 (≈ 987 µM)	256 (≈ 987 µM)	512 (≈ 1970 µM)	9 ± 1	12 ± 1 (≈ 46.3 µM)	64 to 256 (≈ 247 to 987 µM)					COc1cc(/C=C/C(=O)c2ccno2)cc(OC)c1 [Compound 25]	> 40		
64 (≈ 221 µM)	64 (≈ 221 µM)	128 (≈ 442 µM)	128 (≈ 442 µM)	6 ± 1	10 ± 2 (≈ 34.6 µM)	64 to 256 (≈ 221 to 885 µM)					COc1ccc(/C=C/C(=O)c2ccno2)c(OC)c1OC [Compound 26]	> 40		
128 (≈ 442 µM)	64 (≈ 221 µM)	128 (≈ 442 µM)	256 (≈ 885 µM)	8 ± 2	8 ± 2 (≈ 27.7 µM)	64 to 256 (≈ 221 to 885 µM)					COc1cc(/C=C/C(=O)c2ccno2)cc(OC)c1OC [Compound 29]	> 40		
4 (≈ 11.5 µM)	4 (≈ 11.5 µM)	2 (≈ 5.77 µM)	2 (≈ 5.77 µM)	6 ± 1	21 ± 2 (≈ 60.6 µM)		4 (≈ 11.5 µM)	2 (≈ 5.77 µM)			COc1cc(OC)c(C2CC(c3ccno3)=NN2C(N)=O)c(OC)c1 (centres unmarked) [Compound 43]	> 40	4	8
8 (≈ 22.8 µM)	8 (≈ 22.8 µM)	0.5 (≈ 1.43 µM)	0.5 (≈ 1.43 µM)	62 ± 1	12 ± 2 (≈ 34.2 µM)		8 (≈ 22.8 µM)		2 ± 1 (≈ 5.7 µM)	0.5	COc1cc(Cl)c(C2CC(c3ccno3)=NN2C(N)=O)c(OC)c1 (centres unmarked) [Compound 46]	> 40		
